System: SKOV3 cells
Assay: Cell viability detection with CCK-8 detection reagent
Format: cell-based
Conditions: SKOV3 cells treated at different (increasing) concentrations for 24 h
Experimental: In order to verify whether RVT can cause death of the tumor cells, SKOV3 cells are treated with RVT at different concentrations for 24 h, and viability of the SKOV3 cells treated with RVT is detected by using a cell counting kit-8 (CCK-8) detection reagent.
In addition, the SKOV3 cells are treated with PEG-SPIO at different concentrations for 24 h, and the viability of the SKOV3 cells treated with PEG-SPIO is detected by using the CCK-8 detection reagent.
Furthermore, the SKOV3 cells are treated with RVT-encapsulated PEG-SPIO-RVT nanoparticles for 24 h, and the viability of the SKOV3 cells treated with RVT-encapsulated PEG-SPIO-RVT nanoparticles is detected by using the CCK-8 detection reagent. The results are the same as that of treating with RVT alone.

Oc1ccc(/C=C/c2cc(O)cc(O)c2)cc1 [RVT, 3,4′,5-trihydroxy-trans-stilbene]
viability of the SKOV3 cells: gradually shows a downward trend
